The IC50 is the concentration needed to halve the response being measured. One may read the melting point as the temperature, or range, at which the solid turns liquid.

The target of one series is CYP2D6 (Homo sapiens, UniProt P10635). Nature of the series: Inhibitory activity on CYP2D6, human recombinant CYPs. The class given is in vitro ADME. The settings on record: human recombinant CYP2D6, substrate ethylene glycol ester of luciferin-6'-methyl ether; read-out: CYP 2D6 inhibition, IC50 value. As for the experimental part: The purpose of this pharmacokinetic study was to investigate the inhibitory effects of test compounds on the specific metabolic activity of human CYP isozymes using human recombinant CYPs in vitro. […] The specific substrate and positive control is ethylene glycol ester of luciferin-6′-methyl ether and quinidine, respectively. The substrate for the CYP isozyme was incubated with human recombinant CYPs in the presence or absence of the test compounds and the metabolic activity of the CYP isozyme was determined. The reaction mixture was preincubated at 37° C. without NADPH generating system. The reaction was started by the addition of NADPH generating system, and then terminated by the addition of acetonitrile. The activities of the human CYP isozymes were measured by fluorescence signal (CYP2D6) of reaction mixture.

Another series deals with scopolamine-treated mice. Nature of the series: Object recognition test, 3 h inter-trial interval, scopolamine-induced episodic memory deficit.

CYP2D6, sequence (P10635 whole entry): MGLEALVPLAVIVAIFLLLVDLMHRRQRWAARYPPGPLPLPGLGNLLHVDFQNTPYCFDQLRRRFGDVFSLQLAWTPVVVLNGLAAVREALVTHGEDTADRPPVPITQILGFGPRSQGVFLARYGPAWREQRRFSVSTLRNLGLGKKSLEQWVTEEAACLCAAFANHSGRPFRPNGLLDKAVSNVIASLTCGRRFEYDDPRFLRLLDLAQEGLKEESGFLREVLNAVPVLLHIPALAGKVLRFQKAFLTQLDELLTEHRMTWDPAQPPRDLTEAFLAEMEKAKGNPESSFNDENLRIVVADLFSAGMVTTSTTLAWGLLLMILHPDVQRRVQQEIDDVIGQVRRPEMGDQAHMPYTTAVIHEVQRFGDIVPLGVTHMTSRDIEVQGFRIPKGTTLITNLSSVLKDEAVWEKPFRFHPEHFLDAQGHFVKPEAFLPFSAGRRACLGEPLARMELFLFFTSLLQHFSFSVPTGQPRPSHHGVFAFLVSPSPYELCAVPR

As to `Cn1c(N2CCOC(c3nc(-c4ccccc4)no3)C2)nc(-c2ccncn2)cc1=O` (stereo not drawn) [Compound 1, 1-Methyl-2-[2-(3-phenyl-[1,2,4]oxadiazol-5-yl)-morpholin-4-yl]-1H-[4,4′]bipyrimidinyl-6-one], the IC50 at CYP2D6 is more than 50 µM.
In the case of `Cn1c(N2CCOC(c3noc(-c4ccccc4)n3)C2)nc(-c2ccncn2)cc1=O` (stereo not drawn) [Compound 2, 1-Methyl-2-[2-(5-phenyl-[1,2,4]oxadiazol-3-yl)-morpholin-4-yl]-1H-[4,4′]bipyrimidinyl-6-one], on CYP2D6, the IC50 was more than 25 µM.
With `Cn1ccnc1-c1ccc(C2CN(c3nc(-c4ccncn4)cc(=O)n3C)CCO2)cc1` (stereo not drawn) [Compound 4, 1-Methyl-2-{2-[4-(1-methyl-1H-imidazol-2-yl)-phenyl]-morpholin-4-yl}-1H-[4,4′]bipyrimidinyl-6-one], the melting point is 179.8 °C (dec.). Further, the IC50 at CYP2D6 is more than 50 µM.
`Cc1nc(-c2ccc([C@H]3CN(c4nc(-c5ccncn5)cc(=O)n4C)CCO3)cc2)no1` [Compound of the present invention]: the melting point was 191 °C. Further, the IC50 on CYP2D6 is more than 50 µM. Also, in the series with scopolamine-treated mice (3 mg/kg oral), the “effect on episodic memory deficits induced by scopolamine” value was “ineffective”. Also, the “MED, prevention of episodic memory deficits” value in the series with scopolamine-treated mice (scopolamine-treated mice) is on record as 10 mg/kg.
With `CN1[C@@H]2C[C@@H](OC(=O)[C@H](CO)c3ccccc3)C[C@H]1[C@@H]1O[C@@H]12` [scopolamine, reference compound], the “recognition index (RI)” value with scopolamine-treated mice (scopolamine 1 mg/kg 30 minutes before acquisition, 0 mg/kg test compound, 3 h interval) is recorded as 49.9%.

The values are drawn from US8518939B2, “6-pyrimidinyl-pyrimid-4-one derivative” (Mitsubishi Tanabe Pharma Corporation, priority 2007, dated 2013).
